For data set [1], the system named is primary human hepatocytes (PHHs). Nature of the data set: paclitaxel metabolism in primary human hepatocytes. It counts as cell-based. The note with it: 1 μM PTX with 10 μM test compound, 24 and 48 hr. How it is done:
FIGS. 1A-1D show representative data for a representative disclosed compound showing that the tested compound modulates the activity of an hPXR agonist in primary human hepatocytes (“PHHs”). […] PHHs were pretreated with DMSO (0.1%), 1.6 μM of rifampicin (RIF), 0.5 μM of paclitaxel (PTX) or 5 μM of PTX, respectively, in the absence and presence of 10 μM of the test compound. After 72 hr, PHHs then received 3.3 μM of midazolam (MDZ) treatment for 4 h. The concentrations of 1′-OH MDZ (MDZ metabolite) in the media of each pretreatment condition were determined using LC/MS/MS as described in the Examples. […] PHHs were also treated with 1 μM of PTX in the absence and presence of 10 μM of the test compound, and then the concentrations of major PTX metabolites, 3-OH PTX (by CYP3A4) and 6α-OH PTX (by CYP2C8), were determined using LC/MS/MS at 24 hr and 48 hr of treatment, respectively. The concentrations of 3-OH PTX and 6α-OH PTX are shown in FIGS. 1B and 1C, respectively.
Midazolam and 1-OH midazolam were from BD Gentest. Midazolam-D4 maleate (internal standard, IS) was from Cerilliant; Paclitaxel and 3′-p-Hydroxypaclitaxel were from Sigma; and 6α-hydroxy Paclitaxel was from Cayman Chemical. 100 μl of reaction medium at each different time point was collected and 200 μl of acetonitrile containing IS was added. […] Calibration and quality control samples were prepared. […]

Data set [2] has the same test system. Kind of data set: midazolam metabolism in primary human hepatocytes after hPXR agonist pretreatment. It counts as cell-based. The note with it: PHHs pretreated 72 hr with DMSO, 1.6 μM RIF, 0.5 or 5 μM PTX, with 10 μM test compound; then 3.3 μM MDZ 4 h.
Method: Midazolam and 1-OH midazolam were from BD Gentest. Midazolam-D4 maleate (internal standard, IS) was from Cerilliant; Paclitaxel and 3′-p-Hydroxypaclitaxel were from Sigma; and 6α-hydroxy Paclitaxel was from Cayman Chemical. 100 μl of reaction medium at each different time point was collected and 200 μl of acetonitrile containing IS was added. This solution was then vigorously mixed for 10 min and centrifuged at 10,000 rpm for 10 min. Calibration and quality control samples were prepared. 5 μl of the samples was injected onto a Waters Acquity UPLC BEH C18 column (2.1×50 mm, 1.7 μm), using a Waters Acquity UPLC system. Chromatographic separation was performed by gradient elution at a constant flow rate of 1 mL/min for 15 min. The gradient consisted of 0.1% formic acid water (mobile phase A) and methanol (mobile phase B). […] Nitrogen was applied as curtain, collision and drying gas at 60 psi. Declustering potentials, entrance potential and collision energy was as follows: 120 V, 12 V and 35 V for MDZ; 70 V, 12 V and 30 V for 1-OH MDZ; and 120 V, 12 V and 37 V for IS.
The next data set relates to CYP3A4 promoter reporter. Kind of data set: CYP3A4 promoter reporter activity in hPXR-CYP3A4-luc reporter mice (bioluminescence imaging). In kind it is in vivo, mouse. Conditions: RIF 10 mg/kg plus test compound 150 mg/kg every 24 h for 2 days; imaging 10 h after last treatment.
Data set [3] deals with hPXR. Kind of data set: liver CYP3A expression in hPXR-tg mice. Conditions: RIF 10 mg/kg plus test compound 200 mg/kg, 72 h. In kind it is in vivo, mouse. The method, then:
Briefly, mouse liver Cyp3a11 mRNA was analyzed by real-time PCR in hPXR-tg mice treated with vehicle control (Vehicle), RIF (10 mg/kg) or RIF (10 mg/kg) plus test compound (200 mg/kg) for 72 h. Each data point represents the level of Cyp3a11 mRNA (FIG. 3A) or protein (FIG. 3B) in an individual mouse; lines indicate the mean value for 3-7 mice per group.
hPXR-tg mice were generated previously (Xie et al., 2000). Five mice in each group were dosed orally with vehicle control or 10 mg/kg RIF, every 24 h for three days. Eight hours after the last dose, the animals were euthanized by C02 and liver tissues were harvested. A piece of each liver was preserved in RNAlater solution (Invitrogen) at 4° C. for mRNA isolation. The remaining tissue was instantly frozen in liquid nitrogen and stored at −80° C. for total protein extraction. […]

Data set [4] relates to LS 180 cells stably overexpressed hPXR. Kind of data set: sensitization of colon cancer cells to anti-cancer drugs (viability). In kind it is cell-based, human. Conditions: absence vs presence of 10 μM test compound, 96 h. How it is done: FIGS. 2A-2D show representative data for a representative disclosed compound showing that the tested compound sensitizes colon cancer cells to representative anti-cancer drugs. […] LS 180 cells stably overexpressed hPXR were treated with serial dilutions of paclitaxel (PTX; see FIG. 2A), docetaxel (TXT; see FIG. 2B), vinblastine (VBL; see FIG. 2C), or vincristine (VCR; see FIG. 2D) in the absence and presence of 10 μM of the test compound as indicated for 96 h. Values of the viability of compound-treated cells were expressed as a percentage of that of DMSO-treated cells, and drug concentration is expressed in a log scale. Data at each point represents mean±SEM from quadruplicate measurements.

For the next data set, the system named is hPXR-tg mice. Kind of data set: loss of righting reflex (LORR) assay in hPXR transgenic mice. In kind it is in vivo, mouse. The note with it: RIF 10 mg/kg plus test compound 200 mg/kg every 24 h for three days. How it is done:
Loss of righting reflex (LORR) duration was recorded as described in Examples to measure metabolism of the anesthetic ([…]) in hPXR-tg, mice before and after treatment with vehicle, RIF, and RIF plus the test compound as indicated. Each data point represents LORR duration in an individual mouse; lines indicate LORR duration change in individual mouse before and after treatment. P values indicate comparison of values by paired t test.
Mice were intraperitoneally injected with 250 mg/kg of 2,2,2-tribromoethanol, which is metabolically cleared only via mouse CYP3A11. After the mice lost their righting reflex, they were placed on their backs under a heat lamp. The duration of LORR was measured as the time from the start of LORR to recovery (i.e., when mice could right themselves after being placed on their backs twice within 1 min). A baseline LORR duration was established for each mouse at the administered dose of 2,2,2-tribromoethanol. […] The paired Student's t-test was used to compare LORR duration between baseline and after treatment. A P value <0.05 was considered to indicate a significant difference between compared groups.

Data set [5] addresses human Farnesoid X receptor (hFXR) (Homo sapiens, UniProt Q96RI1). Kind of data set: human Farnesoid X receptor (hFXR) transactivation assay. It counts as cell-based. The note with it: Anta = compound exhibited antagonism; read-out: FXR (Anta).
Method: Cells were maintained by following manufacturer's instruction. Briefly, FXR cells were maintained in DMEM supplemented with 10% dialyzed FBS, 0.1 mM non-essential amino acids, 25 mM HEPES, 100 μg/ml of hygromycin B, 100 μg/ml of zeocin, 100 units/ml penicillin and 100 μg/ml streptomycin.
Data set [6] addresses human Liver X receptor alpha (hLXRα) (Homo sapiens, UniProt Q13133). Kind of data set: human Liver X receptor alpha (hLXRα) transactivation assay. In kind it is cell-based. Conditions: Anta = compound exhibited antagonism; read-out: LXRα (Anta).
Another data set has as its system HepG2 cells. Nature of the data set: HepG2 cytotoxicity assay (CellTiter Glo). It counts as cell-based. Conditions: Homo sapiens, HepG2, 72 h, read-out: IC50 (cyto). For orientation: ATP-based viability assays read luminescence as a measure of living cells.
Data set [7] addresses human vitamin D receptor (hVDR) (Homo sapiens, UniProt P11473). Kind of data set: human vitamin D receptor (hVDR) transactivation assay. It counts as cell-based.
Method: Cells were maintained by following manufacturer's instruction. Briefly, VDR cells were maintained in matrigel-coated tissue culture flasks in DMEM supplemented with 10% dialyzed FBS, 0.1 mM non-essential amino acids, 1 mM sodium pyruvate, 25 mM HEPES, 80 μg/ml of hygromycin B, 80 μg/ml of zeocin, 100 units/ml penicillin and 100 μg/ml streptomycin. […] Assay medium containing DMSO without cells serves as background control.
In data set [8] the target is human peroxisome proliferator-activated receptor gamma (PPARγ) (Homo sapiens, UniProt P37231). Kind of data set: human peroxisome proliferator-activated receptor gamma (PPARγ) transactivation assay. In kind it is cell-based. The note with it: Anta = compound exhibited antagonism; read-out: PPARγ (Anta).
Method: Cells were maintained by following manufacturer's instruction. Briefly, PPARγ cells were maintained in matrigel-coated tissue culture flasks in DMEM supplemented with 10% dialyzed FBS, 0.1 mM non-essential amino acids, 1 mM sodium pyruvate, 25 mM HEPES, 100 μg/ml of hygromycin B, 500 μg/ml of geneticin, 100 units/ml penicillin and 100 μg/ml streptomycin. […] Assay medium containing DMSO without cells serves as background control.
Data set [9] concerns the target human retinoid X receptor beta (hRXRβ) (Homo sapiens, UniProt P28702). Nature of the data set: human retinoid X receptor beta (hRXRβ) transactivation assay. It counts as cell-based. Conditions: Anta = compound exhibited antagonism; read-out: RXRβ (Anta).
Method: Cells were maintained by following manufacturer's instruction. Briefly, RXRβ cells were maintained in DMEM supplemented with 10% dialyzed FBS, 0.1 mM non-essential amino acids, 25 mM HEPES, 100 μg/ml of hygromycin B, 100 μg/ml of zeocin, 100 units/ml penicillin and 100 μg/ml streptomycin.
In data set [10] the target is human Liver X receptor beta (hLXRβ) (Homo sapiens, UniProt P55055). Nature of the data set: human Liver X receptor beta (hLXRβ) transactivation assay. It counts as cell-based. The note with it: Anta = compound exhibited antagonism; read-out: LXRβ (Anta).
Data set [11] concerns the target human glucocorticoid receptor (hGR) (Homo sapiens, UniProt P04150). Nature of the data set: human glucocorticoid receptor (hGR) transactivation assay. The note with it: Anta = compound exhibited antagonism; read-out: GR (Anta). In kind it is cell-based.
Data set [12] concerns the target human retinoid X receptor alpha (hRXRα) (Homo sapiens, UniProt P19793). Nature of the data set: human retinoid X receptor alpha (hRXRα) transactivation assay. Conditions: Anta = compound exhibited antagonism; read-out: RXRα (Anta). In kind it is cell-based.
In data set [13] the target is hPXR (Homo sapiens (Human), UniProt O75469). Nature of the data set: hPXR transactivation assays (agonistic and antagonistic), HepG2 cells with CYP3A4-luciferase reporter. The note with it: read-out: IC50 (antag); antagonistic assay, combined with 5 μM rifampicin, 24 h; NA = not active. A general note: Reporter assays use an easily measured gene product as a stand-in for the process of interest.
Method: The hPXR transactivation assays (PXR agonistic and antagonistic assays) were performed in the HepG2 cells stably expressing FLAG-hPXR and CYP3A4-luciferase reporter. […] The luminescence signal was detected using an Envision plate reader (PerkinElmer Life Sciences).

The structures appear in SMILES notation. Where two headings read alike, the source gives them in different places.

Chain of human glucocorticoid receptor (hGR) (P04150 whole entry, looked up): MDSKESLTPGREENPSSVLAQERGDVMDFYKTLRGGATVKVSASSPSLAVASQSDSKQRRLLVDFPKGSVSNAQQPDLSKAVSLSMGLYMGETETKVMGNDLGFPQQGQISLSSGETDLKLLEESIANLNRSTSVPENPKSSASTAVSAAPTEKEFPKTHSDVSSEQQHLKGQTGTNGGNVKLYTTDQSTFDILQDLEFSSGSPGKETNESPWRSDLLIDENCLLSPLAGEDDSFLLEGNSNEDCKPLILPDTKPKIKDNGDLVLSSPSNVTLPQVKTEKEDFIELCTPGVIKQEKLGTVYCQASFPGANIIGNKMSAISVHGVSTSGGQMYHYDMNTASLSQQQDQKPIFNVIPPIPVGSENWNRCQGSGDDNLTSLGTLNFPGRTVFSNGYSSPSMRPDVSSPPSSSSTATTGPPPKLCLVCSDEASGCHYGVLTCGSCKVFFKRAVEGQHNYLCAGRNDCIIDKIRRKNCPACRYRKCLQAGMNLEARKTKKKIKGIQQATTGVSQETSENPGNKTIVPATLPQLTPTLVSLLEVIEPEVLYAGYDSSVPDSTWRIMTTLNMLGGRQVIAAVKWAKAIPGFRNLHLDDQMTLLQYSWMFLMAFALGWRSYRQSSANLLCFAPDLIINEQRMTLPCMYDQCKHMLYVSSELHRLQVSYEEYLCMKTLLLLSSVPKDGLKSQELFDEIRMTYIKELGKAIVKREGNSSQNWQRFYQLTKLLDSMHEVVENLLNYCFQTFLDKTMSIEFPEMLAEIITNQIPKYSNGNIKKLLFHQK
Chain of human Farnesoid X receptor (hFXR) (Q96RI1 whole entry, looked up): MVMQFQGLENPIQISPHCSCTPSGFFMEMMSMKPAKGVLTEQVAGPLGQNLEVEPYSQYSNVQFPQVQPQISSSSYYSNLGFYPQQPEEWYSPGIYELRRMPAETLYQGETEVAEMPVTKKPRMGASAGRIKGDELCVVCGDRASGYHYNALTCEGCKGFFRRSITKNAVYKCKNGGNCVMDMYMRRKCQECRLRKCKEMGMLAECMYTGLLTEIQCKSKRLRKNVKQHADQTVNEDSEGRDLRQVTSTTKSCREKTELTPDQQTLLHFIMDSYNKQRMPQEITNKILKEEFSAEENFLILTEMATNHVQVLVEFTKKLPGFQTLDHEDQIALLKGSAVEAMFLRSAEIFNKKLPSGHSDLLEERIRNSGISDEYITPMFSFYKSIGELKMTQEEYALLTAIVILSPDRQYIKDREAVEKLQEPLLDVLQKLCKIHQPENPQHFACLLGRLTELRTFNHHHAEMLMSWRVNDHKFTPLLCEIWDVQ
Chain of human peroxisome proliferator-activated receptor gamma (PPARγ) (P37231 whole entry, looked up): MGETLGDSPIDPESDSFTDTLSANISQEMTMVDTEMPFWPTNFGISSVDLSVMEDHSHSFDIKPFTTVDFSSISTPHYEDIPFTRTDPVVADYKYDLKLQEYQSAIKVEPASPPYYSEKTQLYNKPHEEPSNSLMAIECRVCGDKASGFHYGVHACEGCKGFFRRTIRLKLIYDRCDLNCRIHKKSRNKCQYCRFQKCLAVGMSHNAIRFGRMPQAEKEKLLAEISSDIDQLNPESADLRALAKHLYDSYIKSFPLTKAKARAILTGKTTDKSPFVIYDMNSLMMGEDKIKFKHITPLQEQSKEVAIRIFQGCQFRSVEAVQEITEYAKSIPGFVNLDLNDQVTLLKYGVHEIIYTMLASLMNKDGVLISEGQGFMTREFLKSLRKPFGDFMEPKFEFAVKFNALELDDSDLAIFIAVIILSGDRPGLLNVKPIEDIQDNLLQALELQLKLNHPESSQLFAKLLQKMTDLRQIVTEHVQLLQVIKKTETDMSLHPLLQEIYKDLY
Chain of human retinoid X receptor alpha (hRXRα) (P19793 whole entry, looked up): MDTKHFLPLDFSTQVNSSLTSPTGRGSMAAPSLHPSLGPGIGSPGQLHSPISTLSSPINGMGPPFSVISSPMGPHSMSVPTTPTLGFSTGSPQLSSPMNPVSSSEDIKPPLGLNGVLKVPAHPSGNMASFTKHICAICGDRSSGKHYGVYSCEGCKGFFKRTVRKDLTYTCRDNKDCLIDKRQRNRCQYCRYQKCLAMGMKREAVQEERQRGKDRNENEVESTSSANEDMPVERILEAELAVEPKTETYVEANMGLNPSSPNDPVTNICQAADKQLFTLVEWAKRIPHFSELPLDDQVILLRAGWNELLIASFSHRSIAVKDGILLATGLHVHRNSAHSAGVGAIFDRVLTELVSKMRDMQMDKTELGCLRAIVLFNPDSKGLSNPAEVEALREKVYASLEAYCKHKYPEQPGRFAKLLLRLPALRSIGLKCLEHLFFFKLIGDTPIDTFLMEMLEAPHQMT
Chain of human vitamin D receptor (hVDR) (P11473 whole entry, looked up): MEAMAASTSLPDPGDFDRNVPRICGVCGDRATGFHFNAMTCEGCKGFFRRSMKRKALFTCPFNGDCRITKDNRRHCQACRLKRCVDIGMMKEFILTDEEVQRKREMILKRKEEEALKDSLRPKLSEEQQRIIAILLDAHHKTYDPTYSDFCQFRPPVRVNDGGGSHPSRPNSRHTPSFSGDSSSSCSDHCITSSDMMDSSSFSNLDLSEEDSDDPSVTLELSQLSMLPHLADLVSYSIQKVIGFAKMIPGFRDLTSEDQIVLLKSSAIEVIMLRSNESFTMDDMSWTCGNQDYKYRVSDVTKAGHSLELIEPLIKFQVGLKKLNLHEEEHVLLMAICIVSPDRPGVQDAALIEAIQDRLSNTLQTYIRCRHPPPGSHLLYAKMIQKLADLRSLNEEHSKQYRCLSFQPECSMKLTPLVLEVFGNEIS
Chain of human Liver X receptor alpha (hLXRα) (Q13133 whole entry, looked up): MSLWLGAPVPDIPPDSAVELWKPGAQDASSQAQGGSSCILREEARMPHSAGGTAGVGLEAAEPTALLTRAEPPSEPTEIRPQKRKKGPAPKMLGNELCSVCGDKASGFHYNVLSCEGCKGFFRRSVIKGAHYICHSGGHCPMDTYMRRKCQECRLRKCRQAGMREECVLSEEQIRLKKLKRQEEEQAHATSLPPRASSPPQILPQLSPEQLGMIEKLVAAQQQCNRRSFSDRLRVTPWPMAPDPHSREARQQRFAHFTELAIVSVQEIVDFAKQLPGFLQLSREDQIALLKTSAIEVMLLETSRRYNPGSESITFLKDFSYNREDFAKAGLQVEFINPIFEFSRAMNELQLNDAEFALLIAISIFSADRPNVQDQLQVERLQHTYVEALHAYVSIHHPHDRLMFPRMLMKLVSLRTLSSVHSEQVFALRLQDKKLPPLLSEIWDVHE
Chain of human retinoid X receptor beta (hRXRβ) (P28702 whole entry, looked up): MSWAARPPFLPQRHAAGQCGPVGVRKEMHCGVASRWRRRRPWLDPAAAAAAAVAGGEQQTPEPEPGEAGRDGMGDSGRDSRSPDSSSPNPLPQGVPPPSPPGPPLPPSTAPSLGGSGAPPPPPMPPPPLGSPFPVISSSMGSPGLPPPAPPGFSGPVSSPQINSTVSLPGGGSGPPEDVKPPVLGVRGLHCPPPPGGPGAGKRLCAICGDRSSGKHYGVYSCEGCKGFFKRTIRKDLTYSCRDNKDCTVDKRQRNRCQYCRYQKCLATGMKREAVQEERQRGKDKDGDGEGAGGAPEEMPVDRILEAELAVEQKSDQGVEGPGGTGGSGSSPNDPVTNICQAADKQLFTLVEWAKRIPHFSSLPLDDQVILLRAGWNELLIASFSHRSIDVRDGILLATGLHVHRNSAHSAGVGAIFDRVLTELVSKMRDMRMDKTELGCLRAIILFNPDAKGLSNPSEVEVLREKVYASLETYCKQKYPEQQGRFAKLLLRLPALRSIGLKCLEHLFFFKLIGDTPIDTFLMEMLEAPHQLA
Chain of human Liver X receptor beta (hLXRβ) (P55055 whole entry, looked up): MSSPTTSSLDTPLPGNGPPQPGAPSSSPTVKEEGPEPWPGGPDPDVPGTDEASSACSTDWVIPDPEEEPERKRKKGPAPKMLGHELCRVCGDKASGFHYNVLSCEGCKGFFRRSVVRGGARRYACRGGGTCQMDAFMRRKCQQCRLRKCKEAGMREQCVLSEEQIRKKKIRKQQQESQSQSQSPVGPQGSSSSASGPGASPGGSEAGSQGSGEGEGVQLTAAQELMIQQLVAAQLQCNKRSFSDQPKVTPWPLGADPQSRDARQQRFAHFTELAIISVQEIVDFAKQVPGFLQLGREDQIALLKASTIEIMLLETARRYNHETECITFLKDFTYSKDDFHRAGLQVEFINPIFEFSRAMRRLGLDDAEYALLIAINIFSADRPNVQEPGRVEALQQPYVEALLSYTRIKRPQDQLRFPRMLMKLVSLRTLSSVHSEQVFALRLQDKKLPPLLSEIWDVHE
Chain of hPXR (Homo sapiens (Human), UniProt O75469) (O75469 whole entry): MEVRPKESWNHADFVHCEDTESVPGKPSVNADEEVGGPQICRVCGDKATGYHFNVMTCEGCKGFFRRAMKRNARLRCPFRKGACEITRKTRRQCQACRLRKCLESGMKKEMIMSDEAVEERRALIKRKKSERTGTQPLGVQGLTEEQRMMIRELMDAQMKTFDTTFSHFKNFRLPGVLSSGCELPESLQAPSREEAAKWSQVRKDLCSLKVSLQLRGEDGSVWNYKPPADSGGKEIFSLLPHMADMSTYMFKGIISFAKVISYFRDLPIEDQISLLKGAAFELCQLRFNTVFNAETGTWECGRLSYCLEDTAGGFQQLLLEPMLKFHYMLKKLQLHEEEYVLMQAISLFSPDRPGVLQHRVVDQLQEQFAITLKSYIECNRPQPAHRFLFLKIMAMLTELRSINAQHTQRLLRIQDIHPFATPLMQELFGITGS
Method for CYP3A4 promoter reporter: Individual mouse received 3 rounds of sequential treatment of vehicle control (Vehicle), RIF (10 mg/kg) and RIF (10 mg/kg) plus the test compound (150 mg/kg) every 24 h for 2 days, respectively, with a washout period of 72-hour between two rounds of treatment. The luciferase activity in these reporter mice was recorded by bioluminescence imaging 10 h after the last treatment of each round, and the induction of CYP3A4 promoter reporter activity was calculated as described in Examples. Each data point represents the induction of CYP3A4 promoter reporter activity by the treatment in an individual mouse, and dos lines indicate the CYP3A4 promoter reporter activity change in individual mouse after following round of treatment. p values are indicated between the two treatment compared by paired t test.
10 hours after the last treatment of each round, the mice were imaged as described above. Uniform regions of interest were drawn around the liver, and total photon flux was analyzed with Living Image 3.2 software (Xenogen). The induction of CYP3A4-luc reporter activity was calculated using the imaging from the same mouse as follows: induction rate=total photon flux (after treatment)/total photon flux (before treatment).

`COc1ccc(OC)c(-n2nnc(S(=O)(=O)c3ccc(C(C)(C)C)cc3)c2C)c1` [4-((4-(tert-butyl)phenyl)sulfonyl)-1-(2,5-dimethoxyphenyl)-5-methyl-1H-1,2,3-triazole]: in [1], the “metabolism of PTX to 3-OH PTX (by CYP3A4)” value was “effectively blocked” and the “metabolism of PTX to 6α-OH PTX (by CYP2C8)” value is “effectively blocked”. Also, the “metabolism of MDZ (1′-OH MDZ in the media)” value in data set [2] is reported as “essentially blocked”. Besides, the “RIF-induced expression of the reporter under the control of the CYP3A4 promoter” value with CYP3A4 promoter reporter is listed as “significantly reduced”. The “hPXR-mediated increase in CYP3A expression (liver Cyp3a11 mRNA, CYP3A protein)” value in the data set with hPXR [3] is listed as “inhibits the hPXR-mediated increase in CYP3A expression”. In data set [4], the “apparent IC50 for PTX, TXT, VBL, or VCR” value is reported as “significantly higher in the absence of the test compound”. Also, the “RIF-induced metabolism of the anesthetic, by LORR duration” value in the data set with hPXR-tg mice was “significantly inhibited”.
In the case of `COc1ccc(OC)c(-n2nnc(S(=O)(=O)c3ccc(C(C)(C)C)cc3)c2CCl)c1` [LC-64, 4-((4-(tert-butyl)phenyl)sulfonyl)-5-(chloromethyl)-1-(2,5-dimethoxyphenyl)-1H-1,2,3-triazole], the IC50 was 6.3 µM in data set [5]; 6.5 µM in data set [6]; 7.9 µM in the data set with HepG2 cells (NA = not active); 7.3 µM in [7]; 1.5 µM in data set [8]; 4.1 µM in [9]. The figures for the IC50 in data set [10], in data set [11] and in [12] were 4.1 µM, 5.6 µM and 5.8 µM, respectively.
Take `COc1ccc(OC)c(-c2ncc(S(=O)(=O)c3ccc(C(C)(C)C)cc3)n2C)c1` [LC-70, 5-((4-(tert-butyl)phenyl)sulfonyl)-2-(2,5-dimethoxyphenyl)-1-methyl-1H-imidazole]: the IC50 in data set [5] worked out at 14.3 µM; in the data set with HepG2 cells (NA = not active), 15.3 µM; in data set [8], 28.3 µM; in data set [11], 20.4 µM; in data set [12] it was 16.1 µM.
On to `COc1ccc(O)c(-n2nnc(S(=O)(=O)c3ccc(C(C)(C)C)cc3)c2C)c1` [LC-86, 2-(4-((4-(tert-butyl)phenyl)sulfonyl)-5-methyl-1H-1,2,3-triazol-1-yl)-4-methoxyphenol], for which the IC50 stood at 21.9 µM in data set [5]; 29.8 µM in [6]; 26.1 µM with HepG2 cells; 0.18 µM on hPXR [13]; 24.2 µM in data set [7]; 11.8 µM in data set [8]. Moreover, the IC50 in data set [9] stood at 17.9 µM; in data set [10], 18.9 µM; in data set [11] it was 21.4 µM; in data set [12], 20.6 µM.

The values are drawn from patent publication US10550091B2, “1,4,5-substituted 1,2,3-triazole analogues as antagonists of the pregnane X receptor” (ST. JUDE CHILDREN'S RESEARCH HOSPITAL, priority 2016, dated 2020).
